The subject of the experiment is L1210 leukemia ip in BDF1 mice, survival T/C. The experiment in a line: NCI In Vivo Anticancer Drug Screen. Data for tumor model L1210 Leukemia (intraperitoneal) in B6D2F1 (BDF1) mice. The note with it: endpoint: mean survival time, higher = longer survival. A digest of the protocol: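 Tumor cells were implanted, animals were treated, and survival was followed. The result divides the treated measurement by the vehicle-control measurement.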

Where [1] appears, read: dose: 50.0 mg/kg/injection, schedule: Q01DX001 (ip), vehicle: saline.
Where [2] appears, read: dose: 100.0 mg/kg/injection, schedule: Q01DX009 (ip), vehicle: saline with Tween-80.
The mark [3] stands for this setting: dose: 200.0 mg/kg/injection, schedule: Q01DX009 (ip), vehicle: saline with Tween-80.
Setting [4] is: dose: 400.0 mg/kg/injection, schedule: Q01DX009 (ip), vehicle: saline with Tween-80.
Setting [5] is: dose: 100.0 mg/kg/injection, schedule: Q04DX003 (ip), vehicle: Klucel (hydroxypropylcellulose) (HPC).
The mark [6] stands for this setting: dose: 200.0 mg/kg/injection, schedule: Q04DX003 (ip), vehicle: Klucel (hydroxypropylcellulose) (HPC).
Setting [7] is: dose: 100.0 mg/kg/injection, schedule: Q01DX001 (ip), vehicle: saline.
[8] abbreviates: dose: 200.0 mg/kg/injection, schedule: Q01DX001 (ip), vehicle: saline.

“And” between values parts separate entries of the source, which are not always exact repeats. Identical values can stand only once. Inconclusive results and toxic doses are left out.

On to `O=C1C=C(O)c2[nH]c(=O)ccc2C1=O`, for which the T/C was 97 % of control (dose: 5.0 mg/kg/injection, schedule: Q01DX001 (ip), vehicle: saline); 101 % of control (dose: 10.0 mg/kg/injection, schedule: Q01DX001 (ip), vehicle: saline); 97 % of control (dose: 20.0 mg/kg/injection, schedule: Q01DX001 (ip), vehicle: saline); 97 % of control (dose: 40.0 mg/kg/injection, schedule: Q01DX001 (ip), vehicle: saline).
With `CCN(CC)C(=O)C(N)Cc1ccc(OC)c(N(CCCl)CCCl)c1` (centres undefined), the T/C was 103 % of control (dose: 6.0 mg/kg/injection, schedule: Q01DX009 (ip), vehicle: saline); 103 % of control (dose: 10.0 mg/kg/injection, schedule: Q01DX009 (ip), vehicle: saline); 112 % of control (dose: 14.0 mg/kg/injection, schedule: Q01DX009 (ip), vehicle: saline); 105 % of control (dose: 22.0 mg/kg/injection, schedule: Q01DX009 (ip), vehicle: saline); 123 % of control (dose: 33.0 mg/kg/injection, schedule: Q01DX001 (ip), vehicle: saline); 108 % of control (dose: 33.0 mg/kg/injection, schedule: Q01DX009 (ip), vehicle: saline). For the same molecule, the T/C was 123 % of control under setting [1]; 104 % of control (dose: 50.0 mg/kg/injection, schedule: Q01DX009 (ip), vehicle: carboxymethylcellulose (CMC)); 116 % of control (dose: 50.0 mg/kg/injection, schedule: Q01DX009 (ip), vehicle: saline); 103 % of control (dose: 75.0 mg/kg/injection, schedule: Q01DX009 (ip), vehicle: carboxymethylcellulose (CMC)); 113 % of control (dose: 112.0 mg/kg/injection, schedule: Q01DX001 (ip), vehicle: saline); 116 % of control (dose: 112.5 mg/kg/injection, schedule: Q01DX001 (ip), vehicle: carboxymethylcellulose (CMC)). Also, the T/C (dose: 150.0 mg/kg/injection, schedule: Q01DX001 (ip), vehicle: carboxymethylcellulose (CMC)) was 117 % of control.
`O=C(/C=C/c1cccc2ccccc12)c1ccccc1[N+](=O)[O-]`: the T/C (dose: 100.0 mg/kg/injection, schedule: Q01DX001 (ip), vehicle: saline with Tween-80) was 96 % of control; the T/C under setting [2] was 96 % of control and 87 % of control; the T/C (dose: 100.0 mg/kg/injection, schedule: Q04DX002 (ip), vehicle: saline with Tween-80) was 88 % of control; the T/C (dose: 100.0 mg/kg/injection, schedule: Q04DX003 (ip), vehicle: saline with Tween-80) was 96 % of control; the T/C (dose: 200.0 mg/kg/injection, schedule: Q01DX001 (ip), vehicle: saline with Tween-80) is 96 % of control; the T/C under setting [3] is 89 % of control and 90 % of control. The T/C by setting is: (dose: 200.0 mg/kg/injection, schedule: Q04DX002 (ip), vehicle: saline with Tween-80) 90 % of control; (dose: 200.0 mg/kg/injection, schedule: Q04DX003 (ip), vehicle: saline with Tween-80) 90 % of control; (dose: 400.0 mg/kg/injection, schedule: Q01DX001 (ip), vehicle: saline with Tween-80) 91 % of control; under setting [4], 86 % of control and 90 % of control; (dose: 400.0 mg/kg/injection, schedule: Q04DX002 (ip), vehicle: saline with Tween-80) 88 % of control and 90 % of control; (dose: 400.0 mg/kg/injection, schedule: Q04DX003 (ip), vehicle: saline with Tween-80) 91 % of control.
Take `CNC(=O)c1cc(NC(=O)Nc2ccc(C3=NCCN3)cc2)cc(NC(=O)Nc2ccc(C3=NCCN3)cc2)c1`: the T/C runs as follows: (dose: 15.0 mg/kg/injection, schedule: Q01DX Z (ip), vehicle: saline) 122 % of control; (dose: 60.0 mg/kg/injection, schedule: Q01DX Z (ip), vehicle: saline) 216 % of control; (dose: 60.0 mg/kg/injection, schedule: Q01DX Z (oral), vehicle: saline) 103 % of control; (dose: 120.0 mg/kg/injection, schedule: Q01DX Z (ip), vehicle: saline) 114 % of control; (dose: 120.0 mg/kg/injection, schedule: Q01DX Z (oral), vehicle: saline) 98 % of control; (dose: 240.0 mg/kg/injection, schedule: Q01DX Z (oral), vehicle: saline) 106 % of control. In addition, for the setting “dose: 480.0 mg/kg/injection, schedule: Q01DX Z (oral), vehicle: saline”, the T/C was 93 % of control.
For the molecule `CNC(=O)O/N=C(/C)c1ccc(Cl)cc1`, the T/C (dose: 100.0 mg/kg/injection, schedule: Q01DX001 (ip), vehicle: carboxymethylcellulose (CMC)) was 93 % of control; the T/C (dose: 200.0 mg/kg/injection, schedule: Q01DX001 (ip), vehicle: carboxymethylcellulose (CMC)) was 101 % of control; the T/C (dose: 400.0 mg/kg/injection, schedule: Q01DX001 (ip), vehicle: carboxymethylcellulose (CMC)) was 101 % of control.
Take `CCCCCCCC(=O)/C=C/c1ccc(C)cc1`: the T/C reads like this: (dose: 100.0 mg/kg/injection, schedule: Q04DX003 (ip), vehicle: saline) 105 % of control; (dose: 200.0 mg/kg/injection, schedule: Q04DX003 (ip), vehicle: saline) 103 % of control; (dose: 400.0 mg/kg/injection, schedule: Q04DX003 (ip), vehicle: saline) 92 % of control.
Take `CC(C)(C)CC(C)(C)NS(=O)(=O)NC(C)(C)CC(C)(C)C`: the T/C under setting [2] was 103 % of control, the T/C under setting [3] is 93 % of control and the T/C under setting [4] is 92 % of control.
Consider `O=C(Oc1ccccc1)c1cc(Br)c2ccccc2c1O`, for which the T/C runs as follows: under setting [2], 96 % of control; under setting [5], 89 % of control; under setting [3], 95 % of control; under setting [6], 97 % of control; under setting [4], 93 % of control; (dose: 400.0 mg/kg/injection, schedule: Q04DX003 (ip), vehicle: Klucel (hydroxypropylcellulose) (HPC)) 87 % of control.
As to `O=C(NCCF)NC1CCC(C(=O)O)CC1` (centres undefined), the T/C under setting [1] was 111 % of control, the T/C under setting [7] was 107 % of control and the T/C under setting [8] is 96 % of control.
Turning to `CCC1CC2CC(c3cc4c(cc3OC)N(C)C3C(O)(C(=O)OC)C(OC(C)=O)C5(CC)C=CCN6CCC43C65)c3[nH]c4ccccc4c3CCN(C1)C2` (centres undefined), the T/C is, setting by setting: (dose: 0.25 mg/kg/injection, schedule: Q01DX009 (ip), vehicle: Klucel (hydroxypropylcellulose) (HPC)) 100 % of control; (dose: 0.5 mg/kg/injection, schedule: Q01DX009 (ip), vehicle: Klucel (hydroxypropylcellulose) (HPC)) 105 % of control; (dose: 1.0 mg/kg/injection, schedule: Q01DX009 (ip), vehicle: Klucel (hydroxypropylcellulose) (HPC)) 101 % of control; (dose: 2.0 mg/kg/injection, schedule: Q01DX009 (ip), vehicle: Klucel (hydroxypropylcellulose) (HPC)) 97 % of control; (dose: 4.0 mg/kg/injection, schedule: Q01DX009 (ip), vehicle: Klucel (hydroxypropylcellulose) (HPC)) 110 % of control; (dose: 8.0 mg/kg/injection, schedule: Q01DX009 (ip), vehicle: Klucel (hydroxypropylcellulose) (HPC)) 103 % of control.
Take `CN(C)C=Nc1ccc(Cl)c2ccccc12`: the T/C (dose: 100.0 mg/kg/injection, schedule: Q01DX001 (ip), vehicle: Klucel (hydroxypropylcellulose) (HPC)) was 99 % of control; the T/C under setting [5] is 98 % of control; the T/C (dose: 200.0 mg/kg/injection, schedule: Q01DX001 (ip), vehicle: Klucel (hydroxypropylcellulose) (HPC)) was 96 % of control; the T/C under setting [6] is 101 % of control; the T/C (dose: 400.0 mg/kg/injection, schedule: Q01DX001 (ip), vehicle: Klucel (hydroxypropylcellulose) (HPC)) was 97 % of control.
Turning to `O/N=C/c1ccc(O)cc1`, the T/C is 96 % of control under setting [1], 108 % of control under setting [7] and 102 % of control under setting [8].
As for `CCCCCCCCCCCCCCCCOCCCCCCCCCCCCCCCC`, the T/C reads like this: (dose: 100.0 mg/kg/injection, schedule: Q01DX009 (ip), vehicle: Klucel (hydroxypropylcellulose) (HPC)) 96 % of control; (dose: 100.0 mg/kg/injection, schedule: Q04DX003 (ip), vehicle: other) 103 % of control; (dose: 200.0 mg/kg/injection, schedule: Q01DX009 (ip), vehicle: Klucel (hydroxypropylcellulose) (HPC)) 100 % of control; (dose: 200.0 mg/kg/injection, schedule: Q04DX003 (ip), vehicle: other) 88 % of control; (dose: 400.0 mg/kg/injection, schedule: Q01DX009 (ip), vehicle: Klucel (hydroxypropylcellulose) (HPC)) 91 % of control; (dose: 400.0 mg/kg/injection, schedule: Q04DX003 (ip), vehicle: other) 95 % of control.

These data come from PubChem BioAssay AID248 (DTP/NCI, 2004).
